The values below come from PMC9272005, “Genome-Wide Expression Analysis of Glyoxalase I Genes Under Hyperosmotic Stress and Existence of a Stress-Responsive Mitochondrial Glyoxalase I Activity in Durum Wheat (Triticum durum Desf.)” (Frontiers in Plant Science, 2022).

This assay deals with T1, DWM-GLYI (mitochondrial glyoxalase I).
T1 construct: native activity in Triton X-100-lysed purified mitochondria; isoform not identified
Nature of the assay: spectrophotometric GLYI activity assay ([…] nm) in lysed mitochondria, inhibition kinetics. The format is biochemical, Triticum turgidum subsp. durum.

The term Ki denotes the dissociation constant of the complex between target and ligand, obtained from inhibition or displacement. The low end stands for tighter binding, the high end for weaker binding. Take `COc1cc(/C=C/C(=O)CC(=O)/C=C/c2ccc(O)c(OC)c2)ccc1O` [curcumin]: the inhibition constant Ki came out at 20 ± 3.5 µM. To `O=c1c(O)c(-c2ccc(O)c(O)c2)oc2cc(O)cc(O)c12` [quercetin] belongs 55 ± 7.5 µM.
